Source: ChEMBL document CHEMBL1201862, “PubChem BioAssay data set” (2004)
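Growth conditions: 96-well plates. Treatment: test compound, 48 hours, 5 concentrations. Analysis: linear interpolation between bracketing concentrations; unreached endpoints set to highest concentration. At the GI50, growth is halved.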 The source made the active and inactive calls. Rule as the data show it: active = GI50 up to about 1.1 µM and inactive = higher.

Assays:
Experiment in all cases: NCI tumour cell line growth inhibition, 48 h
SR = test system: SR
A549 = test system: A549
Hs-578T = test system: Hs-578T
OVCAR-4 = test system: OVCAR-4
EKVX = test system: EKVX
M14 = test system: M14
ACHN = test system: ACHN
NCI-H460 = test system: NCI-H460
MDA-N = test system: MDA-N
MCF7 = test system: MCF7
Malme-3M = test system: Malme-3M
UO-31 = test system: UO-31
OVCAR-5 = test system: OVCAR-5
SF-295 = test system: SF-295
TK-10 = test system: TK-10
UACC-62 = test system: UACC-62
LOX IMVI = test system: LOX IMVI
HL-60 = test system: HL-60
HT-29 = test system: HT-29
SK-OV-3 = test system: SK-OV-3

SMILES	GI50 (SR)	GI50 (A549)	GI50 (Hs-578T)	GI50 (OVCAR-4)	GI50 (EKVX)	GI50 (M14)	GI50 (ACHN)	GI50 (NCI-H460)	GI50 (MDA-N)	GI50 (MCF7)	GI50 (Malme-3M)	GI50 (UO-31)	GI50 (OVCAR-5)	GI50 (SF-295)	GI50 (TK-10)	GI50 (UACC-62)	GI50 (LOX IMVI)	GI50 (HL-60)	GI50 (HT-29)	GI50 (SK-OV-3)
Nc1[nH]nc2ccccc12	62.2 µM (inactive)	> 100 µM (inactive)	> 100 µM (inactive)	> 100 µM (inactive)	> 100 µM (inactive)	> 100 µM (inactive)	> 100 µM (inactive)	> 100 µM (inactive)	> 100 µM (inactive)	> 100 µM (inactive)	> 100 µM (inactive)	83.4 µM (inactive)	60 µM (inactive)	77.8 µM (inactive)	> 100 µM (inactive)	73.1 µM (inactive)	> 100 µM (inactive)	> 100 µM (inactive)	> 100 µM (inactive)	> 100 µM (inactive)
CCOC(=O)CC(=O)NC1CC2CCC1(C)C2(C)C (stereo not given)	> 100 µM (inactive)	> 100 µM (inactive)	> 100 µM (inactive)	> 100 µM (inactive)	> 100 µM (inactive)	> 100 µM (inactive)	> 100 µM (inactive)	> 100 µM (inactive)	> 100 µM (inactive)	> 100 µM (inactive)	> 100 µM (inactive)	> 100 µM (inactive)	> 100 µM (inactive)	> 100 µM (inactive)	> 100 µM (inactive)	> 100 µM (inactive)	> 100 µM (inactive)	> 100 µM (inactive)	> 100 µM (inactive)	> 100 µM (inactive)
O=C(CN1CCCCC1)CC(O)(C(F)(F)F)C(F)(F)F	> 100 µM (inactive)	> 100 µM (inactive)	95.9 µM (inactive)	> 100 µM (inactive)	> 100 µM (inactive)	> 100 µM (inactive)	> 100 µM (inactive)	> 100 µM (inactive)	> 100 µM (inactive)	> 100 µM (inactive)	> 100 µM (inactive)	> 100 µM (inactive)	> 100 µM (inactive)	> 100 µM (inactive)	> 100 µM (inactive)	> 100 µM (inactive)	> 100 µM (inactive)	> 100 µM (inactive)	> 100 µM (inactive)	> 100 µM (inactive)
NC1=Nc2ccccc2Sc2nnc(-c3ccc(Cl)cc3)n21	11.2 µM (inactive)	49.3 µM (inactive)	35.2 µM (inactive)	> 100 µM (inactive)	75.3 µM (inactive)	> 100 µM (inactive)	47 µM (inactive)	21.9 µM (inactive)	> 100 µM (inactive)	> 100 µM (inactive)	> 100 µM (inactive)	> 100 µM (inactive)	> 100 µM (inactive)	29.6 µM (inactive)	40.8 µM (inactive)	61.4 µM (inactive)	7.03 µM (inactive)	8.59 µM (inactive)	> 100 µM (inactive)	> 100 µM (inactive)
N#Cc1c(-c2ccccc2)cc(Nc2ccc(F)cc2)n2c1nc1ccccc12	3.89 µM (inactive)	2.28 µM (inactive)	< 0.01 µM (active)	4.62 µM (inactive)	2.09 µM (inactive)	3.35 µM (inactive)	2.7 µM (inactive)	2.36 µM (inactive)	2.28 µM (inactive)	2.18 µM (inactive)	3.66 µM (inactive)	1.73 µM (inactive)	3.16 µM (inactive)	2.22 µM (inactive)	3.55 µM (inactive)	1.84 µM (inactive)	3.33 µM (inactive)	> 100 µM (inactive)	2.26 µM (inactive)	2.43 µM (inactive)
CCC1(CC)C(=O)N(C(=O)c2ccc(C)cc2)N(C(=O)c2ccc(C)cc2)C1=O	26.2 µM (inactive)	> 75 µM (inactive)	> 75 µM (inactive)	> 75 µM (inactive)	48.6 µM (inactive)	> 75 µM (inactive)	26.8 µM (inactive)	18.3 µM (inactive)	63.2 µM (inactive)	45.5 µM (inactive)	14.4 µM (inactive)	> 75 µM (inactive)	> 75 µM (inactive)	72.9 µM (inactive)	73.1 µM (inactive)	> 75 µM (inactive)	33.2 µM (inactive)	28.4 µM (inactive)	> 75 µM (inactive)	> 75 µM (inactive)
COc1ccc(-c2c3c(cc4cc5c(cc24)OCO5)C(=O)OC3)cc1OC	0.0299 µM (active)	1.44 µM (inactive)	6.22 µM (inactive)	2.47 µM (inactive)	1.96 µM (inactive)	0.305 µM (active)	1.37 µM (inactive)	0.222 µM (active)	2.01 µM (inactive)	4.13 µM (inactive)	0.51 µM (active)	3.15 µM (inactive)	9.55 µM (inactive)	0.239 µM (active)	42.2 µM (inactive)	0.507 µM (active)	0.0164 µM (active)	0.271 µM (active)	0.215 µM (active)	13.4 µM (inactive)
